US11827657B2, “Boron containing pyrazole compounds, compositions comprising them, methods and uses thereof” (BOEHRINGER INGELHEIM ANIMAL HEALTH USA INC., priority 2020, dated 2023)

biological target: JAK1 (Homo sapiens, UniProt P23458); assay: Biochemical Kinase Assay (JAK), 33P-ATP filter-binding; conditions: Biochemical Kinase Inhibition Assay; potency level of IC50; read-out: JAK1 (range)
Procedure: Biochemical Kinase Assay Protocol (JAK) • Reagent: Base Reaction buffer; 20 mM Hepes (pH 7.5), 10 mM MgCl2, 1 mM EGTA, 0.02% Brij™ 35, 0.02 mg/ml BSA, 0.1 mM Na3VO4, 2 mM DTT, 1% DMSO, where required cofactors were added individually to each kinase reaction.
Reaction Procedure: • 1. Prepared indicated substrate in freshly prepared Base Reaction Buffer • 2. Delivered any required cofactors to the substrate solution above • 3. Delivered indicated kinase into the substrate solution and gently mix • 4. Delivered compounds in DMSO into the kinase reaction mixture by Acoustic technology (Echo550; nanoliter range), incubated for 20 minutes at room temperature • 5. Delivered 33P-ATP into the reaction mixture to initiate the reaction. • 6. Incubated kinase reaction for 2 hours at room temperature • 7. Reactions were spotted onto P81 ion exchange paper • 8. Detected kinase activity by filter-binding method.
Compounds according to the present invention were tested in the Biochemical Kinase Assay Protocol. The results are provided below in Table 1, wherein the potency levels A, B, and C in the columns labeled JAK1 (range) correspond to IC50 as follows: A<10 nM; B=10-50 nM and C>50 nM. The Example Number entries formatted ##a represent stereoisomer one and entries formatted ##b represent stereoisomer two.

Sequence of JAK1 (P23458 whole entry, species assumed): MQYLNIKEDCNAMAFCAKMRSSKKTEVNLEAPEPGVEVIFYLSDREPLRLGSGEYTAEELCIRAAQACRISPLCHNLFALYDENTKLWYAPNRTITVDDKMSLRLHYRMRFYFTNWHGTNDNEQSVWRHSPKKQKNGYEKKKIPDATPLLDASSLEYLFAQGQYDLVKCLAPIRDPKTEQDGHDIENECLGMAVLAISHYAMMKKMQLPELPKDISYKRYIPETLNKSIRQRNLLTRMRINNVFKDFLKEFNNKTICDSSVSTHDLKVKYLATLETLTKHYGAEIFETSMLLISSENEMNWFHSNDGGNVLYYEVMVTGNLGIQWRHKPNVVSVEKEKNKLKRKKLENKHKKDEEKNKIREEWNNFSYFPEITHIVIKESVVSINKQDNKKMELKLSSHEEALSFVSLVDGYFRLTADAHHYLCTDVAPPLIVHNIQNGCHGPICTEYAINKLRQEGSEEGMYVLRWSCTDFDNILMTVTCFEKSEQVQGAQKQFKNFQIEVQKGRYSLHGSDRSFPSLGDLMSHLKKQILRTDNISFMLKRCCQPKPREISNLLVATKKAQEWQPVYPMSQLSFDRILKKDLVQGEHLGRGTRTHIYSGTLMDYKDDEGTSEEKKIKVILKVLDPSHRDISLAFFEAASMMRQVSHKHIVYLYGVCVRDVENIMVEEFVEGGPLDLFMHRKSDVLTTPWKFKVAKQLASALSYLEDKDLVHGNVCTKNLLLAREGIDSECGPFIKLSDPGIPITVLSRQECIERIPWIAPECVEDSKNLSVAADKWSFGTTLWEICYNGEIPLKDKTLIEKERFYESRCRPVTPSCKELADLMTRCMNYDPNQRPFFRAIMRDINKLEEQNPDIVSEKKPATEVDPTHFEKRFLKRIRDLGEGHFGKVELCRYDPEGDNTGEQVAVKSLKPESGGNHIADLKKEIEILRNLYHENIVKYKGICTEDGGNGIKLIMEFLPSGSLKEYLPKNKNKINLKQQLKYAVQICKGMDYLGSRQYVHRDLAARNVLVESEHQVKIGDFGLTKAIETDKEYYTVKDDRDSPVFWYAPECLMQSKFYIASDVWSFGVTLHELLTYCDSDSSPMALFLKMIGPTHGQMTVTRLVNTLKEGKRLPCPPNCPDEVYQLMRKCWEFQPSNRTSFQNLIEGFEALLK

SMILES	IC50 [nM]
N#C[C@@H]1CCOC[C@H]1n1cc(C(N)=O)c(Nc2cc3c(cc2F)OB(O)C=C3)n1 (relative stereo) [Example 29, 1-(trans-4-cyanotetrahydro-2H-pyran-3-yl)-3-[(7-fluoro-2-hydroxy-1,2-benzoxaborinin-6-yl)amino]pyrazole-4-carboxamide]	10 to 50
N#C[C@@H]1CCOC[C@H]1n1cc(C(N)=O)c(Nc2ccc3c(c2)C=C(CCO)B(O)O3)n1 (relative stereo) [Example 22, 1-[trans-4-cyanooxan-3-yl]-3-{[2-hydroxy-3-(2-hydroxyethyl)-2H-1,2-benzoxaborinin-6-yl]amino}-1H-pyrazole-4-carboxamide]	< 10
CCC1=C(CC)c2cc(Nc3nn([C@@H]4CCC[C@H]4C#N)cc3C(N)=O)ccc2OB1O (relative stereo) [Example 40, 1-(trans-2-cyanocyclopentyl)-3-[(3,4-diethyl-2-hydroxy-1,2-benzoxaborinin-6-yl)amino]pyrazole-4-carboxamide]	10 to 50
N#C[C@@H]1CCOC[C@H]1n1cc(C(N)=O)c(Nc2ccc3c(c2)C(Cl)=CB(O)O3)n1 (single isomer, unassigned) [Example 43b, 3-[(4-chloro-2-hydroxy-1,2-benzoxaborinin-6-yl)amino]-1-[trans-4-cyanotetrahydro-2H-pyran-3-yl]pyrazole-4-carboxamide]	< 10
CCC1=Cc2cc(Nc3nn([C@@H]4COCC[C@H]4C#N)cc3C(N)=O)ccc2OB1O (relative stereo) [Example 56, 1-(trans-4-cyanotetrahydro-2H-pyran-3-yl)-3-[(3-ethyl-2-hydroxy-1,2-benzoxaborinin-6-yl)amino]pyrazole-4-carboxamide]	< 10
CC1=CB(O)Oc2ccc(Nc3nn(C4COCCC4C#N)cc3C(N)=O)cc21 (stereo not drawn) [Example 3, 1-[trans-4-cyanotetrahydro-2H-pyran-3-yl]-3-[(2-hydroxy-4-methyl-1,2-benzoxaborinin-6-yl)amino]pyrazole-4-carboxamide]	< 10
CC(C)(C)C1=Cc2cc(Nc3nn([C@@H]4COCC[C@H]4C#N)cc3C(N)=O)ccc2OB1O (relative stereo) [Example 19, 3-[(3-tert-butyl-2-hydroxy-1,2-benzoxaborinin-6-yl)amino]-1-(trans-4-cyanotetrahydro-2H-pyran-3-yl)pyrazole-4-carboxamide]	< 10
CC(C)C1=Cc2cc(Nc3nn([C@@H]4CCCC[C@H]4C#N)cc3C(N)=O)ccc2OB1O (relative stereo) [Example 49, 1-(trans-2-cyanocyclohexyl)-3-[(2-hydroxy-3-isopropyl-1,2-benzoxaborinin-6-yl)amino]pyrazole-4-carboxamide]	< 10
N#C[C@@H]1CCOC[C@H]1n1cc(C(N)=O)c(Nc2ccc3c(c2)COB3O)n1 (single isomer, unassigned) [Example 41a, 1-(trans-4-cyanotetrahydro-2H-pyran-3-yl)-3-((1-hydroxy-1,3-dihydrobenzo[c][1,2]oxaborol-5-yl)amino)-1H-pyrazole-4-carboxamide]	< 10
CC(C)C1=Cc2cc(Nc3nn([C@@H]4COCC[C@H]4C#N)cc3C(N)=O)ccc2OB1O (single isomer, unassigned) [Example 48a, 1-(trans-4-cyanotetrahydro-2H-pyran-3-yl)-3-((2-hydroxy-3-isopropyl-2H-benzo[e][1,2]oxaborinin-6-yl)amino)-1H-pyrazole-4-carboxamide]	< 10
N#C[C@@H]1CCCC[C@H]1n1cc(C(N)=O)c(Nc2ccc3c(c2)COB3O)n1 (relative stereo) [Example 11, 1-(trans-2-cyanocyclohexyl)-3-((1-hydroxy-1,3-dihydrobenzo[c][1,2]oxaborol-5-yl)amino)-1H-pyrazole-4-carboxamide]	< 10
CC1=Cc2cc(Nc3nn(C4COCCC4C#N)cc3C(N)=O)cc(F)c2OB1O (stereo not drawn) [Example 14, 1-(trans-4-cyanotetrahydro-2H-pyran-3-yl)-3-[(8-fluoro-2-hydroxy-3-methyl-1,2-benzoxaborinin-6-yl)amino]pyrazole-4-carboxamide]	< 10
CC1=Cc2cc(Nc3nn([C@@H]4COCC[C@H]4C#N)cc3C(N)=O)cc(C)c2OB1O (relative stereo) [Example 32, 1-[trans-4-cyanotetrahydro-2H-pyran-3-yl]-3-[(2-hydroxy-3,8-dimethyl-1,2-benzoxaborinin-6-yl)amino]pyrazole-4-carboxamide]	< 10
CC(C)(C)C1=Cc2cc(Nc3nn([C@@H]4CCCC[C@H]4C#N)cc3C(N)=O)ccc2OB1O (relative stereo) [Example 21, 3-[(3-tert-butyl-2-hydroxy-1,2-benzoxaborinin-6-yl)amino]-1-(trans-2-cyanocyclohexyl)pyrazole-4-carboxamide]	< 10

Now from value to compound:

IC50 [nM]	SMILES
> 50	N#C[C@@H]1CCOC[C@H]1n1cc(C(N)=O)c(Nc2cc3c(c(OC(F)(F)F)c2)OB(O)C=C3)n1 (single isomer, unassigned) [Example 53a, 1-[trans-4-cyanotetrahydro-2H-pyran-3-yl]-3-[[2-hydroxy-8-(trifluoromethoxy)-1,2-benzoxaborinin-6-yl]amino]pyrazole-4-carboxamide]
> 50	Cc1cc2c(cc1Nc1nn([C@@H]3COCC[C@H]3C#N)cc1C(N)=O)C=CB(O)O2 (single isomer, unassigned) [Example 46b, 1-(trans-4-cyanotetrahydro-2H-pyran-3-yl)-3-((2-hydroxy-7-methyl-2H-benzo[e][1,2]oxaborinin-6-yl)amino)-1H-pyrazole-4-carboxamide]
< 10	Cc1cc(Nc2nn([C@@H]3CCC[C@H]3C#N)cc2C(N)=O)cc2c1OB(O)C=C2 (relative stereo) [Example 31, 1-(trans-2-cyanocyclopentyl)-3-[(2-hydroxy-8-methyl-1,2-benzoxaborinin-6-yl)amino]pyrazole-4-carboxamide]
> 50	N#C[C@@H]1CCOC[C@H]1n1cc(C(N)=O)c(Nc2ccc3c(c2)OB(O)C=C3)n1 (relative stereo) [Example 2, 1-[trans-4-cyanotetrahydro-2H-pyran-3-yl]-3-[(2-hydroxy-1,2-benzoxaborinin-7-yl)amino]pyrazole-4-carboxamide]
< 10	Cc1cc(Nc2nn(C3COCCC3C#N)cc2C(N)=O)cc2c1OB(O)C=C2 (stereo not drawn) [Example 27, 1-[trans-4-cyanotetrahydro-2H-pyran-3-yl]-3-[(2-hydroxy-8-methyl-1,2-benzoxaborinin-6-yl)amino]pyrazole-4-carboxamide]
> 50	N#C[C@@H]1CCOC[C@H]1n1cc(C(N)=O)c(Nc2cc3c(c(C4CC4)c2)OB(O)C=C3)n1 (single isomer, unassigned) [Example 55b, 1-[trans-4-cyanotetrahydro-2H-pyran-3-yl]-3-[(8-cyclopropyl-2-hydroxy-1,2-benzoxaborinin-6-yl)amino]pyrazole-4-carboxamide]
< 10	N#CC1CCOCC1n1cc(C(N)=O)c(Nc2ccc3c(c2)C=CB(O)O3)n1 (stereo not drawn) [Example 51, 1-(trans-4-cyanotetrahydro-2H-pyran-3-yl)-3-[(2-hydroxy-1,2-benzoxaborinin-6-yl)amino]pyrazole-4-carboxamide]
< 10	N#C[C@@H]1CCOC[C@H]1n1cc(C(N)=O)c(Nc2cc(F)c3c(c2)C=CB(O)O3)n1 (single isomer, unassigned) [Example 44b, 1-[trans-4-cyanotetrahydro-2H-pyran-3-yl]-3-[(8-fluoro-2-hydroxy-1,2-benzoxaborinin-6-yl)amino]pyrazole-4-carboxamide]
